Laboratory results taken from patent US4235904A, “4-Aryl-5-piperazinoalkyl-1,3-dioxol-2-ones, and compositions” (Instituto Luso Farmaco d'Italia S.p.A., priority 1978, dated 1980).
Where a name gives a salt, the structure may show the parent alone.

What was measured:
[1] = system: plasmatic cholesterol; assay: Hypocholesterolemic activity: determination of plasmatic cholesterol in rats treated orally; type: in vivo; conditions: Rattus norvegicus, po, 96 h, os, five treatments in 4 days, dose which reduces by 30% the content of plasmatic cholesterol, Table 1, read-out: Hypocholesterolemic activity, DE30 (rats)
Protocol: It has been evaluated orally in rats treated five times in 4 days (once daily during the first three days, twice daily on the fourth day) with the drugs under study. The animals, kept on an empty stomach, were killed on the fifth day, 18 hours after the last treatment. The following tests were carried out: The technique described by J. P. Blomhoff (Clin.Chim.Acta, 43,247, 1973) for the gas-chromatographic determination of total cholesterol was followed. 0,5 ml of the animal serum are hydrolysed at 50° C. for 1 hour with 5 ml of 2% alcoholic KOH. Cholesterol is extracted with 2% petroleum ether at 60°-80° C. and the gas-chromatographic analysis is carried out on the extract with cholesterol acetate as internal standard. The plasmatic cholesterol concentration of the treated animals is evaluated by comparing it with that of the controls. The calculated ED30 represents the dose which reduces by 30% the content of plasmatic cholesterol.

[2] = system: plasmatic triglycerides; assay: Hypotriglyceremic activity: determination of plasmatic triglycerides in rats treated orally; type: in vivo; conditions: Rattus norvegicus, po, 96 h, os, five treatments in 4 days, dose which reduces by 30% the content of plasmatic triglycerides, Table 2, read-out: Hypotriglyceremic activity DE30 (rats)
Protocol: It has been evaluated orally in rats treated five times in 4 days (once daily during the first three days, twice daily on the fourth day) with the drugs under study. The animals, kept on an empty stomach, were killed on the fifth day, 18 hours after the last treatment. The following tests were carried out: The technique of […].,44, 267, 1966) is used; it consists in determining, by enzymatic route, the total glycerol made free by hydrolysis of the seric neutral fats. In particular, the "Biochemia Test Combination" (Boehringer Mannheim GMBH) was used. In this case, too, the seric concentration of triglycerides in the treated animals was compared with that in the controls. The calculated ED30 represents the dose which reduces by 30% the content of plasmatic triglycerides.

[3] = Antiulcer activity in the rat (immobilization, method of Rossi et al.); type: in vivo; conditions: po, rats, os, 30 minutes before 4 hours immobilization, dose which protects 30% of the animals from ulcers, Table 3, read-out: Antiulcer activity DE30 (rats)
Protocol: (b) Antiulcer activity in the rat The method described by Rossi et al. (Comp.Rend.Soc.Biol., 150, 2124, 1956) was followed: 30 minutes after the oral treatment with the drugs under study, the animals, kept on an empty stomach for 48 hours, were immobilized for a period of 4 hours. At the end of this time, the presence of ulcers is checked after killing the animals by ether. The calculated ED30 represents the dose which protects 30% of the animals from ulcers.

[4] = Acute toxicity, DL50 (mice), ip; conditions: for LD50: mouse, in vivo

SMILES | ED30 [1] | ED30 [2] | ED30 [3] | LD50 [4] | Acute toxicity DL50 (mice) ([4]; Table 1) | Acute toxicity DL50 (mice) ([4]; Table 2) | Acute toxicity DL50 (mice) ([4]; Table 3)
Cl.Cl.O=c1oc(CCN2CCN(c3ccccc3)CC2)c(-c2ccc(F)cc2)o1 [Compound 1, 4-(4-fluorophenyl)-5-[2-(4-phenyl-1-piperazinyl)ethyl]-1,3-dioxol-2-one dihydrochloride] | 10 mg/kg | 50 mg/kg | 10 mg/kg | 420 mg/kg | – | – | –
CN(CCc1ccccc1)CCc1oc(=O)oc1-c1ccc(F)cc1.Cl [Compound 2, 4-(4-fluorophenyl)-5-[2-(N-methyl-N-2-phenylethylamino)ethyl]-1,3-dioxol-2-one hydrochloride] | – | – | 15 mg/kg | 175 mg/kg | – | – | –
Cl.Cl.O=c1oc(CCN2CCN(c3ccccn3)CC2)c(-c2ccc(F)cc2)o1 [Compound 3, 4-(4-fluorophenyl)-5-[2-(4-(2-pyridyl)-1-piperazinyl)ethyl]-1,3-dioxol-2-one dihydrochloride] | 25 mg/kg | – | – | 350 mg/kg | – | – | –
CN1CCN(CCc2oc(=O)oc2-c2ccc(F)cc2)CC1.Cl.Cl [Compound 4, 4-(4-fluorophenyl)-5-[2-(4-methyl-1-piperazinyl)ethyl]-1,3-dioxol-2-one dihydrochloride] | – | – | 20 mg/kg | 300 mg/kg | – | – | –
COc1ccccc1N1CCN(CCc2oc(=O)oc2-c2ccc(F)cc2)CC1.Cl.Cl [Compound 5, 4-(4-fluorophenyl)-5-[2-(4-(2-methoxyphenyl)-1-piperazinyl)ethyl]-1,3-dioxol-2-one dihydrochloride] | – | – | 30 mg/kg | 350 mg/kg | – | – | –
Cl.Cl.O=c1oc(CCN2CCN(c3ccccc3)CC2)c(-c2ccccc2)o1 [Compound 6, 4-phenyl-5-[2-(4-phenyl-1-piperazinyl)ethyl]-1,3-dioxol-2-one dihydrochloride] | 20 mg/kg | 30 mg/kg | 20 mg/kg | 500 mg/kg | – | – | –
Cl.Cl.O=c1oc(CCN2CCN(c3ccccc3)CC2)c(-c2ccc(Cl)cc2)o1 [Compound 7, 4-(4-chlorophenyl)-5-[2-(4-phenyl-1-piperazinyl)ethyl]-1,3-dioxol-2-one dihydrochloride] | 6 mg/kg | 30 mg/kg | 80 mg/kg | 650 mg/kg | – | – | –
O=c1oc(CCN2CCOCC2)c(-c2ccc(F)cc2)o1 [Compound 8, 4-(4-fluorophenyl)-5-[2-(1-morpholinyl)ethyl]-1,3-dioxol-2-one hydrochloride] | – | – | 30 mg/kg | > 1000 mg/kg | – | – | –
Cc1ccc(-c2oc(=O)oc2CCN2CCN(c3ccccc3)CC2)cc1.Cl [Compound 9, 4-(4-tolyl)-5-[2-(4-phenyl-1-piperazinyl)ethyl]-1,3-dioxol-2-one hydrochloride] | 15 mg/kg | 100 mg/kg | 10 mg/kg | > 1000 mg/kg | > 1000 mg/kg | > 1000 mg/kg | –
Cl.O=c1oc(CCN2CCN(c3cc(Cl)cc(Cl)c3)CC2)c(-c2ccc(F)cc2)o1 [Compound 10, 4-(4-fluorophenyl)-5-[2-(4-(3,5-dichlorophenyl)-1-piperazinyl)ethyl]-1,3-dioxol-2-one hydrochloride] | – | 100 mg/kg | 50 mg/kg | > 1000 mg/kg | – | > 1000 mg/kg | –
CC1CN(CCc2oc(=O)oc2-c2ccc(F)cc2)CCN1c1ccc(Cl)cc1.Cl.Cl (stereo not shown) [Compound 11, 4-(4-fluorophenyl)-5-[2-(4-(4-chlorophenyl)-3-methyl-1-piperazinyl)ethyl]-1,3-dioxol-2-one dihydrochloride] | – | 30 mg/kg | 100 mg/kg | 1000 mg/kg | – | – | –
Cl.O=c1oc(CCN2CCN(c3cc(Cl)ccc3Cl)CC2)c(-c2ccc(F)cc2)o1 [Compound 12, 4-(4-fluorophenyl)-5-[2-(4-(2,5-dichlorophenyl)-1-piperazinyl)ethyl]-1,3-dioxol-2-one hydrochloride] | – | 30 mg/kg | – | – | – | 1000 mg/kg | –
Cl.O=c1oc(CCN2CCN(c3ccc(Cl)c(Cl)c3)CC2)c(-c2ccc(F)cc2)o1 [Compound 13, 4-(4-fluorophenyl)-5-[2-(4-(3,4-dichlorophenyl)-1-piperazinyl)ethyl]-1,3-dioxol-2-one hydrochloride] | – | 25 mg/kg | 100 mg/kg | – | – | 600 mg/kg | 600 mg/kg
O=c1oc(CCN2CCN(c3ccccc3)CC2)c(-c2ccc3ccccc3c2)o1 [Compound 14, 4-(2-naphtyl)-5-[2-(4-phenyl-1-piperazinyl)ethyl]-1,3-dioxol-2-one hydrochloride] | 20 mg/kg | 100 mg/kg | – | 830 mg/kg | – | – | –
COc1ccc(-c2oc(=O)oc2CCN2CCN(c3ccccc3)CC2)cc1.Cl.Cl [Compound 15, 4-(4-methoxyphenyl)-5-[2-(4-phenyl-1-piperazinyl)ethyl]-1,3-dioxol-2-one dihydrochloride] | – | 20 mg/kg | – | > 1000 mg/kg | – | – | –
CSc1ccc(-c2oc(=O)oc2CCN2CCN(c3ccccc3)CC2)cc1.Cl.Cl [Compound 16, 4-(4-methylthiophenyl)-5-[2-(4-phenyl-1-piperazinyl)ethyl]-1,3-dioxol-2-one dihydrochloride] | – | 100 mg/kg | – | > 1000 mg/kg | – | – | –
Cl.O=c1oc(CCN2CCC3(CCCCC3)CC2)c(-c2ccc(F)cc2)o1 [Compound 17, 4-(4-fluorophenyl)-5-[2-(3-azaspiro[5,5]undecan-3-yl)ethyl]-1,3-dioxol-2-one hydrochloride] | – | 30 mg/kg | – | 190 mg/kg | – | – | –
Cl.Cl.O=c1oc(CCN2CCN(C(c3ccccc3)c3ccc(Cl)cc3)CC2)c(-c2ccc(Cl)cc2)o1 (stereo not shown) [Compound 18, 4-(4-chlorophenyl)-5-[2-(4-(4-chlorobenzhydryl)-1-piperazinyl)ethyl]-1,3-dioxol-2-one dihydrochloride] | – | 20 mg/kg | – | > 1000 mg/kg | – | – | –
O=C(O)/C=C\C(=O)O.O=c1oc(CCN2CCN(c3ncccn3)CC2)c(-c2ccc(Cl)cc2)o1 [Compound 19, 4-(4-chlorophenyl)-5-[2-(4-(2-pyrimidinyl)-1-piperazinyl)ethyl]-1,3-dioxol-2-one maleate] | 30 mg/kg | – | – | 375 mg/kg | – | – | –
Cl.O=c1oc(CCCN2CCN(c3ccccc3)CC2)c(-c2ccc(F)cc2)o1 [Compound 20, 4-(4-fluorophenyl)-5-[3-(4-phenyl-1-piperazinyl)propyl]-1,3-dioxol-2-one hydrochloride] | 30 mg/kg | 15 mg/kg | – | > 500 mg/kg | – | > 500 mg/kg | –
O=c1oc(CCN2CCN(c3ccc(Cl)cc3)CC2)c(-c2ccc(Cl)cc2)o1 [Compound 21, 4-(4-chlorophenyl)-5-[2-(4-chlorophenyl)-1-piperazinyl)ethyl]-1,3-dioxol-2-one hydrochloride] | – | 100 mg/kg | – | > 1000 mg/kg | – | – | –
O=c1oc(CCN2CCC(c3ccccc3)CC2)c(-c2ccc(Cl)cc2)o1 [Compound 22, 4-(4-chlorophenyl)-5-[2-(4-phenyl)-1-piperidinyl)ethyl]-1,3-dioxol-2-one hydrochloride] | – | 50 mg/kg | – | 750 mg/kg | – | – | –
Cl.O=c1oc(CCN2CCN(C(c3ccccc3)c3ccccc3)CC2)c(-c2ccc(Cl)cc2)o1 [Compound 23, 4-(4-chlorophenyl)-5-[2-(4-benzhydryl-1-piperazinyl)ethyl]-1,3-dioxol-2-one hydrochloride] | – | 100 mg/kg | – | > 1000 mg/kg | – | – | –
